The NIST ThermoML archive (doi:10.1021/je800203s)
Numbers after ± are expanded uncertainties.

Key:
[1] = Crystal
[2] = Molar enthalpy of transition or fusion; details: Crystal
[3] = molar heat capacity at constant pressure; details: 101.33 kPa

COc1ccc(CC#N)cc1OC [(3,4-dimethoxyphenyl)acetonitrile]
Details | Molar enthalpy of transition or fusion [kcal/mol] | Triple point temperature [K]
[1] | – | 337.08 ± 0.15
[2] | 5.91 ± 0.0693 | –

[3]
Details | molar heat capacity at constant pressure [J/K/mol]
78.32 K, Crystal | 80.52 ± 1.6
80 K, Crystal | 82.15 ± 1.6
81.06 K, Crystal | 82.37 ± 1.6
84.38 K, Crystal | 84.71 ± 1.6
85 K, Crystal | 85.39 ± 1.6
87.3 K, Crystal | 87.42 ± 1.7
90 K, Crystal | 88.81 ± 1.7
90.17 K, Crystal | 89.84 ± 1.7
93.05 K, Crystal | 91.31 ± 1.8
95 K, Crystal | 92.41 ± 1.8
95.92 K, Crystal | 93.07 ± 1.8
98.78 K, Crystal | 94.96 ± 1.8
100 K, Crystal | 96.15 ± 1.8
102.8 K, Crystal | 97.78 ± 1.8
105 K, Crystal | 100 ± 1.9
106.79 K, Crystal | 101.8 ± 1.9
109.62 K, Crystal | 103.7 ± 1.9
110 K, Crystal | 104 ± 1.9
112.5 K, Crystal | 106.5 ± 1.9
115 K, Crystal | 108 ± 2
115.38 K, Crystal | 108.6 ± 2
118.25 K, Crystal | 111 ± 2
120 K, Crystal | 112.1 ± 2
121.12 K, Crystal | 113.3 ± 2
123.99 K, Crystal | 115.6 ± 2.1
125 K, Crystal | 116.3 ± 2.1
126.87 K, Crystal | 118 ± 2.1
129.71 K, Crystal | 120.3 ± 2.1
130 K, Crystal | 120.4 ± 2.1
132.55 K, Crystal | 122.1 ± 2.1
135 K, Crystal | 124.6 ± 2.2
135.4 K, Crystal | 124.9 ± 2.2
138.26 K, Crystal | 127.8 ± 2.2
140 K, Crystal | 128.8 ± 2.2
141.12 K, Crystal | 129.7 ± 2.2
143.94 K, Crystal | 131.8 ± 2.3
145 K, Crystal | 133 ± 2.3
146.78 K, Crystal | 134.2 ± 2.3
149.62 K, Crystal | 136.7 ± 2.3
150 K, Crystal | 137.1 ± 2.3
153.27 K, Crystal | 139.5 ± 2.3
155 K, Crystal | 141.2 ± 2.4
156.88 K, Crystal | 142.9 ± 2.4
159.69 K, Crystal | 144.6 ± 2.4
160 K, Crystal | 145.3 ± 2.4
162.54 K, Crystal | 146.5 ± 2.4
165 K, Crystal | 149.3 ± 2.5
165.37 K, Crystal | 148.6 ± 2.5
168.16 K, Crystal | 151.4 ± 2.5
170 K, Crystal | 153.3 ± 2.5
170.93 K, Crystal | 153.9 ± 2.5
173.78 K, Crystal | 156.3 ± 2.6
175 K, Crystal | 157.2 ± 2.6
176.63 K, Crystal | 157.8 ± 2.6
179.46 K, Crystal | 159.5 ± 2.6
180 K, Crystal | 161 ± 2.6
182.27 K, Crystal | 162.3 ± 2.6
185 K, Crystal | 164.7 ± 2.7
185.06 K, Crystal | 164.3 ± 2.7
187.83 K, Crystal | 167.4 ± 2.7
190 K, Crystal | 168.4 ± 2.7
190.65 K, Crystal | 168.8 ± 2.7
195 K, Crystal | 172 ± 2.8
196.37 K, Crystal | 174.3 ± 2.8
199.23 K, Crystal | 175.5 ± 2.8
200 K, Crystal | 175.6 ± 2.8
202.71 K, Crystal | 177.3 ± 2.8
205 K, Crystal | 179 ± 2.8
206.12 K, Crystal | 180.1 ± 2.9
208.91 K, Crystal | 182.6 ± 2.9
210 K, Crystal | 182.5 ± 2.9
211.79 K, Crystal | 184.7 ± 2.9
214.67 K, Crystal | 185.5 ± 2.9
215 K, Crystal | 185.8 ± 2.9
217.53 K, Crystal | 187.8 ± 2.9
220 K, Crystal | 189.1 ± 3
220.39 K, Crystal | 189.8 ± 3
223.24 K, Crystal | 192.6 ± 3
225 K, Crystal | 192.4 ± 3
226.07 K, Crystal | 194.1 ± 3
228.97 K, Crystal | 196 ± 3
230 K, Crystal | 195.6 ± 3
231.92 K, Crystal | 198.1 ± 3.1
234.86 K, Crystal | 200.2 ± 3.1
235 K, Crystal | 198.8 ± 3.1
237.82 K, Crystal | 201.4 ± 3.1
240 K, Crystal | 202 ± 3.1
240.78 K, Crystal | 203 ± 3.1
244.26 K, Crystal | 204.7 ± 3.2
245 K, Crystal | 205.2 ± 3.2
247.72 K, Crystal | 206 ± 3.2
250 K, Crystal | 208.4 ± 3.2
250.62 K, Crystal | 206.7 ± 3.2
253.5 K, Crystal | 208.8 ± 3.2
255 K, Crystal | 211.6 ± 3.2
256.38 K, Crystal | 210.7 ± 3.2
259.24 K, Crystal | 213.1 ± 3.3
260 K, Crystal | 214.9 ± 3.3
262.1 K, Crystal | 214.8 ± 3.3
264.94 K, Crystal | 216.4 ± 3.3
265 K, Crystal | 218.2 ± 3.3
267.89 K, Crystal | 218.3 ± 3.3
270 K, Crystal | 221.6 ± 3.4
270.93 K, Crystal | 221.1 ± 3.4
273.96 K, Crystal | 223.6 ± 3.4
275 K, Crystal | 225.2 ± 3.4
276.98 K, Crystal | 226.3 ± 3.4
279.99 K, Crystal | 228.9 ± 3.5
280 K, Crystal | 228.8 ± 3.5
283 K, Crystal | 231.4 ± 3.5
285 K, Crystal | 232.6 ± 3.5
285.98 K, Crystal | 234.1 ± 3.5
288.95 K, Crystal | 236.8 ± 3.6
290 K, Crystal | 236.6 ± 3.6
291.89 K, Crystal | 239.8 ± 3.6
294.78 K, Crystal | 242.2 ± 3.6
295 K, Crystal | 240.8 ± 3.6
297.68 K, Crystal | 245.2 ± 3.7
298.15 K, Crystal | 243.5 ± 3.6
300 K, Crystal | 245.2 ± 3.7
300.71 K, Crystal | 247.1 ± 3.7
303.68 K, Crystal | 250.1 ± 3.7
305 K, Crystal | 249.8 ± 3.7
306.62 K, Crystal | 252.2 ± 3.7
309.56 K, Crystal | 254.2 ± 3.8
310 K, Crystal | 254.8 ± 3.8
312.48 K, Crystal | 256 ± 3.8
315 K, Crystal | 260 ± 3.8
315.49 K, Crystal | 259.8 ± 3.8
318.59 K, Crystal | 261.9 ± 3.9
320 K, Crystal | 265.6 ± 3.9
321.66 K, Crystal | 267 ± 3.9
324.72 K, Crystal | 275 ± 4
327.73 K, Crystal | 284.8 ± 4.2
330.67 K, Crystal | 313 ± 4.5
340 K, Liquid | 350.5 ± 5
342.04 K, Liquid | 352 ± 5
345 K, Liquid | 353.2 ± 5
345.02 K, Liquid | 352.7 ± 5
348.08 K, Liquid | 354.6 ± 5
350 K, Liquid | 356 ± 5.1
351.14 K, Liquid | 356.8 ± 5.1
354.19 K, Liquid | 358.7 ± 5.1
355 K, Liquid | 358.7 ± 5.1
357.24 K, Liquid | 360.1 ± 5.1
360 K, Liquid | 361.4 ± 5.1
360.28 K, Liquid | 361.3 ± 5.1
363.32 K, Liquid | 362.6 ± 5.2
365 K, Liquid | 363.9 ± 5.2
366.35 K, Liquid | 364.4 ± 5.2
369.38 K, Liquid | 366.3 ± 5.2
370 K, Liquid | 366.3 ± 5.2
372.4 K, Liquid | 367.9 ± 5.2
375 K, Liquid | 368.7 ± 5.2
375.42 K, Liquid | 368.7 ± 5.2
378.43 K, Liquid | 370.1 ± 5.2
380 K, Liquid | 371 ± 5.3
381.44 K, Liquid | 371.6 ± 5.3
384.44 K, Liquid | 373 ± 5.3
385 K, Liquid | 373.3 ± 5.3
387.44 K, Liquid | 374.5 ± 5.3
390 K, Liquid | 375.7 ± 5.3
390.43 K, Liquid | 376.1 ± 5.3
393.41 K, Liquid | 377.4 ± 5.3
395 K, Liquid | 378.4 ± 5.4
396.39 K, Liquid | 379.4 ± 5.4
399.38 K, Liquid | 380.9 ± 5.4
400 K, Liquid | 381.5 ± 5.4
